This passage reports IC50 results from patent publication US9422293B2 (priority 2006, dated 2016).

What is called IC50 is the point on the concentration scale where inhibition reaches its midpoint.

Structures can show the parent of a compound that is named as a salt.

Sequence of rat TRPV1 (O35433 whole entry): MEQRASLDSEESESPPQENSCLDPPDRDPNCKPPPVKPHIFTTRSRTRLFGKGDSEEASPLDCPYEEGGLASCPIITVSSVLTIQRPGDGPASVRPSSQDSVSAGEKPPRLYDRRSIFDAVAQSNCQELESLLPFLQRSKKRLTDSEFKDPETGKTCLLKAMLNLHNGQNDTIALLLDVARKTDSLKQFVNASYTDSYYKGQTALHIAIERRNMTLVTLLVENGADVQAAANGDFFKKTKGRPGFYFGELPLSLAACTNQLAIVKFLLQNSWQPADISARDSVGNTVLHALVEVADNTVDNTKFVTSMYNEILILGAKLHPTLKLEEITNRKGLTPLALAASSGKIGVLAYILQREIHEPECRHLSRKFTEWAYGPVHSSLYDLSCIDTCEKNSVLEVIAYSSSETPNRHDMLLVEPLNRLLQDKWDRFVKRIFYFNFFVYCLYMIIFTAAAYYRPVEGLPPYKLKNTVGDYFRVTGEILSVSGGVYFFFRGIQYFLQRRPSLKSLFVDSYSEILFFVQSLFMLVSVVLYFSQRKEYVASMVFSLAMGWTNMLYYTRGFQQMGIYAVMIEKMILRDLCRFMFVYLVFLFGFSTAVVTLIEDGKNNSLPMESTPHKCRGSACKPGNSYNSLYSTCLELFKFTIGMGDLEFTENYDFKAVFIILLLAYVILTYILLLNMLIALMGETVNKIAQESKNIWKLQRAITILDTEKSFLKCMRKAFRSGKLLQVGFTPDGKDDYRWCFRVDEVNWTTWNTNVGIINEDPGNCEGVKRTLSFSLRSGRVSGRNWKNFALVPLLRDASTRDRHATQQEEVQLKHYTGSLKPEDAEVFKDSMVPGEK

The experiment has as its target rat TRPV1 (Rattus norvegicus (Rat), UniProt O35433). As to conditions: read-out: Rat IC50.
Experimental: Biological Testing: Functional Assay: Block of Capsaicin-Induced Ca^2+ Influx A. Human Assay
Cells were passaged frequently, every 3-5 days, to avoid overgrowth, depletion of essential medium components, or acidic medium exposure. Cells were passaged using a brief wash in 0.05% trypsin with 1 mM EDTA, followed by dissociation in divalent-free phosphate-buffered saline (Hyclone #SH30028.02). […] The assay buffer was composed of 130 mM NaCl, 2 mM KCl, 2 mM MgCl2, 10 mM HEPES, 5 mM glucose, and either 2 mM or 20 μM CaCl2. On the day of the experiment, the culture medium was replaced with 2 mM calcium assay buffer using an automated plate washer (ELx405; Biotek, VT). […] After loading the cells, the dye solution was replaced with 50 μL/well of 20 μM calcium assay buffer using the ELx405 plate washer. Test compounds (50 μL/well) were added to the plate and incubated for 30 min. […] The IC50 values were determined. […] The contents of the wells were mixed 3 times (40 μL mix volume) immediately after the additions were made. Concentration dependence of block was determined by exposing each well of cells in duplicate rows of a 96 well plate to a serial dilution of test compound. The concentration series usually started at 10 μM with a three-fold serial decrement in concentration. The magnitude of the capsaicin response was determined by measuring the change in fluo3 fluorescence before and 100 seconds after the addition of the agonist. Data were analyzed using a non-linear regression program (Origin; OriginLab, MA). IC50 values shown are the average (mean) of the results obtained.
The assay was performed as described above, using HEK293 cells transfected with rat TRPV1 (rTRPV1/HEK293). […] IC50 values shown are the average (mean) of the results obtained.
Consider `CC(C)c1nc2c(c(Nc3ccc(C(C)O)cc3)n1)CCN(c1ncccc1C(F)(F)F)CC2` (stereo not shown) [Example 182, 1-[4-({2-(1-Methylethyl)-7-[3-(trifluoromethyl)pyridin-2-yl]-6,7,8,9-tetrahydro-5H-pyrimido[4,5-d]azepin-4-yl}amino)phenyl]ethanol], for which the IC50 is 790 nM.

As to `CC(C)c1nc2c(c(Nc3ccc(C(O)C(F)(F)F)cc3)n1)CCN(c1ncccc1C(F)(F)F)CC2` (stereo not shown) [Example 183, 2,2,2-Trifluoro-1-[4-({2-(1-methylethyl)-7-[3-(trifluoromethyl)pyridin-2-yl]-6,7,8,9-tetrahydro-5H-pyrimido[4,5-d]azepin-4-yl}amino)phenyl]ethanol], the IC50 turned out to be 2370 nM.

On to `CC(C)c1nc2c(c(Nc3ccc(C(C)(C)C(=O)O)cc3)n1)CCN(c1ncccc1C(F)(F)F)CC2` [Example 184, 2-Methyl-2-[4-({2-(1-methylethyl)-7-[3-(trifluoromethyl)pyridin-2-yl]-6,7,8,9-tetrahydro-5H-pyrimido[4,5-d]azepin-4-yl}amino)phenyl]propanoic acid], for which the IC50 was determined as 1950 nM.

On to `CC(C)(C(=O)O)c1ccc(Nc2nc(N3CCCCC3)nc3c2CCN(c2ncccc2C(F)(F)F)CC3)cc1` [Example 186, 2-Methyl-2-[4-({2-piperidin-1-yl-7-[3-(trifluoromethyl)pyridin-2-yl]-6,7,8,9-tetrahydro-5H-pyrimido[4,5-d]azepin-4-yl}amino)phenyl]propanoic acid], for which the half-maximal inhibitory concentration (IC50) was found to be 140 nM.

As to `Cc1cnc(Nc2nc(C(C)C)nc3c2CCN(c2ncccc2C(F)(F)F)CC3)cn1` [Example 187, 2-(1-Methylethyl)-N-(5-methylpyrazin-2-yl)-7-[3-(trifluoromethyl)pyridin-2-yl]-6,7,8,9-tetrahydro-5H-pyrimido[4,5-d]azepin-4-amine hydrochloride salt], the concentration for half-maximal inhibition (IC50) worked out at 2850 nM.

In the case of `CC(C)c1nc2c(c(Nc3ccc(C(F)(F)F)c(Cl)n3)n1)CCN(c1ncccc1C(F)(F)F)CC2` [Example 188, N-[6-Chloro-5-(trifluoromethyl)pyridin-2-yl]-2-(1-methylethyl)-7-[3-(trifluoromethyl)pyridin-2-yl]-6,7,8,9-tetrahydro-5H-pyrimido[4,5-d]azepin-4-amine hydrochloride salt], the IC50 worked out at 1590 nM.

For the compound `FC(F)(F)c1ccc(Nc2nc(-c3ccncc3)nc3c2CCN(c2ncccc2C(F)(F)F)CC3)nc1` [Example 190, 2-Pyridin-4-yl-7-[3-(trifluoromethyl)pyridin-2-yl]-N-[5-(trifluoromethyl)pyridin-2-yl]-6,7,8,9-tetrahydro-5H-pyrimido[4,5-d]azepin-4-amine trifluoroacetic acid salt], the IC50 was found to be 1160 nM.

On to `CC(C)c1nc2c(c(Nc3cnc(C(F)(F)F)cn3)n1)CCN(c1ncccc1C(F)(F)F)CC2` [Example 191, [2-Isopropyl-7-(3-trifluoromethyl-pyridin-2-yl)-6,7,8,9-tetrahydro-5H-pyrimido[4,5-d]azepin-4-yl]-(5-trifluoromethyl-pyrazin-2-yl)-amine], for which the IC50 came out at 260 nM.

For `FC(F)(F)c1cnc(Nc2nc(N3CCCCC3)nc3c2CCN(c2ncccc2C(F)(F)F)CC3)cn1` [Example 192, [2-Piperidin-1-yl-7-(3-trifluoromethyl-pyridin-2-yl)-6,7,8,9-tetrahydro-5H-pyrimido[4,5-d]azepin-4-yl]-(5-trifluoromethyl-pyrazin-2-yl)-amine], the IC50 was 70 nM.

As for `CN1CCN(c2nc3c(c(Nc4ccc(C(F)(F)F)cn4)n2)CCN(c2ncccc2C(F)(F)F)CC3)CC1` [Example 193, 2-(4-Methylpiperazin-1-yl)-7-[3-(trifluoromethyl)pyridin-2-yl]-N-[5-(trifluoromethyl)pyridin-2-yl]-6,7,8,9-tetrahydro-5H-pyrimido[4,5-d]azepin-4-amine], the half-inhibitory concentration (IC50) is 2110 nM.
